Tests used:
[1] = Anxiolytic activity, Geller conflict method (Geller and Seifter); assay type: in vivo; conditions: po; modified Geller and Seifter conflict method; read-out: Geller Conflict (MED mg/kg po), minimum effective dose at which there was an observed increase in shocks above control
Procedure: Screening for anxiolytic activity was carried out by modifications of the conflict method of Geller and Seifter (Psychopharmacologia, (1960), Volume I, p. 482). The values given in Table VI are the minimum effective doses at which there was an observed increase in shocks above control (MED me/kg po).

[2] = biological target: benzodiazepine receptors; experiment: Affinity for benzodiazepine receptors ([3H] flunitrazepam radioreceptor binding); conditions: inhibition of specific binding of 0.6 nM [^3 H] flunitrazepam, rat forebrain membrane preparations; read-out: Receptor Binding (IC50 nM)
Procedure: A. Affinity for benzodiazepine receptors
The affinity of the compounds for benzodiazepine receptors was assessed using the radioligand [^3 H] flunitrazepam and modifications of the original radioreceptor binding method of Squares and Braestrup (Nature, Vol. 266 (1977) p. 732). The values given in Table VI are nanomolar concentrations of test compound which inhibited the specific binding of 0.6 nM[^3 H] flunitrazepam to rat forebrain membrain preparations by 50% (IC50 nM).

SMILES	minimal effective dose [1] [mg/kg]	IC50 [2] [nM]
CCCCCCc1c(OC)nc2nc(C(=O)c3ccccc3)cn2c1C [Example 19, (6-n-Hexyl-7-methoxy-5-methylimidazo[1,2-a]pyrimidin-2-yl)phenylmethanone]	20	180
CCSc1nc2nc(C(=O)c3ccccc3)cn2c2c1CCC2 [Example 13, [5-(Ethylthio)cyclopenta[e]imidazo[1,2-a]pyrimidin-2-yl]phenylmethanone]	50	1850
CCc1c(OC)nc2nc(C(=O)c3ccc(Cl)cc3)cn2c1C [Example 55, (6-ethyl 7-methoxy 5-methylimidazo/1,2-a/pyrimidin-2-yl)(4-chlorophenyl)methanone]	50	85
CCCCc1c(OC)nc2nc(C(=O)c3ccccc3)cn2c1CC [Example 36, [6-n-Butyl-5-ethyl-7-methoxy-imidazo[1,2-a]pyrimidin-2-yl]phenylmethanone]	10	34
CCc1c(OC)nc2nc(C(=O)c3ccc(SC)cc3)cn2c1C [Example 59, (6-ethyl 7-methoxy 5-methylimidazo/1,2-a/pyrimidin-2-yl)(4-methylthiophenyl)methanone]	50	300
CCc1c(OC)nc2nc(C(=O)c3cccc(OC)c3)cn2c1C [Example 58, (6-ethyl 7-methoxy 5-methylimidazo/1,2-a/pyrimidin-2-yl)(3-methoxyphenyl)methanone]	50	500
CCc1c(SC)nc2nc(C(=O)c3ccccc3)cn2c1C [Example 49, [6-ethyl-5-methyl-7-(methylthio)imidazo[1,2-a]pyrimidin-2-yl]phenylmethanone]	2	12
COc1nc2nc(C(=O)c3ccccc3)cn2c2c1CCCCC2 [Example 8]	10	125
COc1nc2nc(C(=O)c3ccccc3)cn2c(C)c1CC1CC1 [Example 23, [6-Cyclopropylmethyl-7-methoxy-5-methylimidazo[1,2-a]pyrimidin-2-yl]phenylmethanone]	10	30
CCCCc1c(OC)nc2nc(C(=O)c3ccccc3)cn2c1CCC [Example 34, [6-n-Butyl-7-methoxy-5-n-propylimidazo[1,2-a]pyrimidin-2-yl]phenylmethanone]	50	710
COc1ccn2cc(C(=O)c3ccccc3)nc2n1 [Example 28, [7-Methoxyimidazo[1,2-a]pyrimidin-2-yl]phenylmethanone]	50	8500
CCOc1nc2nc(C(=O)c3ccccc3)cn2c(C)c1CC [Example 25, [7-Ethoxy-6-ethyl-5-methylimidazo[1,2-a]pyrimidin-2-yl]phenylmethanone]	50	1900
COc1nc2nc(C(=O)c3ccccc3)cn2cc1C [Example 42, [7-Methoxy-6-methylimidazo[1,2-a]pyrimidin-2-yl]phenylmethanone]	50	5900
CSc1nc2nc(C(=O)c3ccccc3)cn2c2c1CCC(C)C2 (centres unmarked) [Example 18, [8-Methyl-5-(methylthio)-6,7,8,9-tetrahydroimidazo[1,2-a]quinzolin-2-yl]phenylmethanone]	50	76
COc1cc(C)n2cc(C(=O)c3ccccc3)nc2n1 [Example 3, (7-Methoxy-5-methylimidazol[1,2-a]pyrimidin-2-yl)-phenyl methanone]	5	800
COc1nc2nc(C(=O)c3ccccc3)cn2c(C)c1C(C)C [Example 11, (7-Methoxy-5-methyl-6-(1-methylethyl)imidazo[1,2-a]pyrimidin-2-yl)phenylmethanone]	2	37
CCCc1cc(SC)nc2nc(C(=O)c3ccccc3)cn12 [Example 22, [7-(Methylthio)-5-propylimidazo[1,2-a]pyrimidin-2-yl]phenylmethanone]	50	89
COc1nc2nc(C(=O)c3ccccc3)cn2c(C)c1C [Example 7, (7-Methoxy-5,6-dimethylimidazo[1,2-a]pyrimidin-2-yl)phenylmethanone]	50	235
CCc1c(OC)nc2nc(C(=O)c3ccccc3)cn2c1CC [Example 31, [5,6-Diethyl-7-methoxyimidazo[1,2-a]pyrimidin-2-yl]phenylmethanone]	2	107
COc1nc2nc(C(=O)c3ccccc3)cn2c2c1CCCC2 [Example 1, (5-methoxy-6,7,8.9-tetrahydroimidazo[1,2-a]quinazolin-2-yl)phenylmethanone]	5	61

SMILES	minimal effective dose [1] [mg/kg]	IC50 [2] [nM]
COc1nc2nc(C(=O)c3ccccc3)cn2c(C)c1CC(C)C [Example 48, [6-iso-Butyl-7-methoxy-5-methylimidazo[1,2-a]pyrimidin-2-yl]phenylmethanone]	20	400
CCCCc1c(CCC)c(OC)nc2nc(C(=O)c3ccccc3)cn12 [Example 46, [5-n-Butyl-7-methoxy-6-n-propylimidazo[1,2-a]pyrimidin-2-yl]phenylmethanone]	20	1200
CCCCc1c(OC)nc2nc(C(=O)c3ccccc3)cn2c1C [Example 30, [6-n-Butyl-7-methoxy-5-methylimidazo[1,2-]pyrimidin-2-yl]phenylmethanone]	2	42
CCCc1c(OC)nc2nc(C(=O)c3ccccc3)cn2c1CC [Example 35, [5-Ethyl-7-methoxy-6-n-propylimidazo[1,2-a]pyrimidin-2-yl]phenylmethanone]	10	34
CCc1c(OC)nc2nc(C(=O)c3ccccc3)cn2c1C [Example 16, (6-Ethyl-7-methoxy-5-methylimidazo[1,2-a]pyrimidin-2-yl)phenylmethanone]	2	56
COc1nc2nc(C(=O)c3ccccc3)cn2c(C)c1CC1CCCCC1 [Example 24, [6-Cyclohexylmethyl-7-methoxy-5-methylimidazo[1,2-a]pyrimidin-2-yl]phenylmethanone]	50	250
CCCc1cc(OC)nc2nc(C(=O)c3ccccc3)cn12 [Example 14, (7-Methoxy-5-propylimidazo[1,2-a]pyrimidin-2-yl)phenylmethanone]	1	535
CCc1c(C)c(OC)nc2nc(C(=O)c3ccccc3)cn12 [Example 29, [5-Ethyl-7-methoxy-6-methylimidazo[1,2-a]pyrimidin-2-yl]phenylmethanone]	20	1000
CCc1c(OC)nc2nc(C(=O)c3ccc(OC)cc3)cn2c1C [Example 54, (6-Ethyl-7-methoxy-5-methylimidazo[1,2-a]pyrimidin-2-yl)(4-methoxyphenyl)methanone]	10	59
CCc1cn2cc(C(=O)c3ccccc3)nc2nc1OC [Example 38, [6-Ethyl-7-methoxyimidazo[1,2-a]pyrimidin-2-yl]phenylmethanone]	5	1500
CCCCc1cn2cc(C(=O)c3ccccc3)nc2nc1OC [Example 41, [6-n-Butyl-7-methoxyimidazo[1,2-a]pyrimidin-2-yl]phenylmethanone]	50	300
CCCc1cn2cc(C(=O)c3ccccc3)nc2nc1OC [Example 40, [7-Methoxy-6-n-propylimidazo[1,2-a]pyrimidin-2-yl]phenylmethanone]	50	1900
C=CCc1c(OC)nc2nc(C(=O)c3ccccc3)cn2c1C [Example 20, (6-Allyl-7-methoxy-5-methylimidazo[1,2-a]pyrimidin-2-yl)phenylmethanone]	4	45
CCCc1c(OC)nc2nc(C(=O)c3ccccc3)cn2c1C [Example 32, [7-Methoxy-5-methyl-6-n-propylimidazo[1,2-a]pyrimidin-2-yl]phenylmethanone]	5	85
CCCCc1cc(OC)nc2nc(C(=O)c3ccccc3)cn12 [Example 43, [5-n-Butyl-7-methoxyimidazo[1,2-a]pyrimidin-2-yl]phenylmethanone]	10	340
CCCc1c(C)c(OC)nc2nc(C(=O)c3ccccc3)cn12 [Example 26, [7-Methoxy-6-methyl-5-propylimidazo[1,2-a]pyrimidin-2-yl]phenylmethanone]	20	740
CCCCCc1c(OC)nc2nc(C(=O)c3ccccc3)cn2c1C [Example 47, [7-Methoxy-5-methyl-6-n-pentylimidazo[1,2-a]pyrimidin-2-yl]phenylmethanone]	20	107
C=CCc1c(OC)nc2nc(C(=O)c3ccccc3)cn2c1CC [Example 44, [6-Allyl-5-ethyl-7-methoxyimidazo[1,2-a]pyrimidin-2-yl]phenylmethanone]	10	42
CSc1cc(C)n2cc(C(=O)c3ccccc3)nc2n1 [Example 21, [5-Methyl-7-(methylthio)imidazo[1,2-a]pyrimidin-2-yl]phenylmethanone]	50	190
CSc1nc2nc(C(=O)c3ccccc3)cn2c2c1CCC2 [Example 6, [5-(Methylthio)cyclopenta[e]imidazo[1,2-a]pyrimidin-2-yl]phenylmethanone]	2	35
